In data set [1] the target is Glucagon-like peptide 1 receptor (Homo sapiens, UniProt P43220). The data set can be described thus: Activation of human GLP1R expressed in HEK293 cells preincubated for 30 mins followed by addition of cAMP-d2 conjugate/cryptate conjugate incubated for 60 mins by fluorescence analysis. The class given is functional, cell-based.
The target in data set [2] is T1, DPP4 (dipeptidyl peptidase 4) (Homo sapiens, UniProt P27487). Kind of data set: Drug degradation assessed as recombinant human DPP4-mediated cleavage by measuring compound remaining after 8 hrs by RP-HPLC analysis. The class given is ADME. The following applies: read-out: Stability.
T1 sequence (P27487 whole entry): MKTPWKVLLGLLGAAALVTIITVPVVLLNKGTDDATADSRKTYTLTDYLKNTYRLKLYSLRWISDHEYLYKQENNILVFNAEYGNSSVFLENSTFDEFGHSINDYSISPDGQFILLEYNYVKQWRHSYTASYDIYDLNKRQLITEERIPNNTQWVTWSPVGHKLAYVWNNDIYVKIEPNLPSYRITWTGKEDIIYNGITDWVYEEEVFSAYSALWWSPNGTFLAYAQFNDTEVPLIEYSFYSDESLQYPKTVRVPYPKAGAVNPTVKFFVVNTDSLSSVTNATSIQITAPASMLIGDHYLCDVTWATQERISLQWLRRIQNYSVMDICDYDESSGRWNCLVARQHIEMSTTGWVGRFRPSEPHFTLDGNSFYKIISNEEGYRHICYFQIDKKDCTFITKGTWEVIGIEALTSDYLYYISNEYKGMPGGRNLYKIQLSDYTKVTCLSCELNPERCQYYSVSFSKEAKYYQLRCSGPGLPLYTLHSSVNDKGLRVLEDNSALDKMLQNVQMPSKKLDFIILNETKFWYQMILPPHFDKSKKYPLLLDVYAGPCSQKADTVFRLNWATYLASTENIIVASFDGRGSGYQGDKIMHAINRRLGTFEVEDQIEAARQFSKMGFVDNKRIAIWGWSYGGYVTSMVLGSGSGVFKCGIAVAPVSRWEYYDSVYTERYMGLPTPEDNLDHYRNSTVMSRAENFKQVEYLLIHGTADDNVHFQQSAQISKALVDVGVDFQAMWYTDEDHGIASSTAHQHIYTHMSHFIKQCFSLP
The target of data set [3] is T1, DPP4 (dipeptidyl peptidase 4). The data set can be described thus: Drug degradation assessed as recombinant human DPP4-mediated cleavage by measuring compound remaining after 2 hrs by RP-HPLC analysis. The class given is ADME. Conditions: read-out: Stability.
The target is the same in data set [4]. Kind of data set: Drug degradation assessed as recombinant human DPP4-mediated cleavage by measuring compound remaining after 4 hrs by RP-HPLC analysis. The class given is ADME. The following applies: read-out: Stability.
Data set [5] shares this target. Kind of data set: Drug degradation assessed as recombinant human DPP4-mediated cleavage by measuring compound remaining after 1 hr by RP-HPLC analysis. The class given is ADME. Conditions: read-out: Stability.
Data set [6] in a line: Retention time of compound over 30 mins by HPLC analysis. The class given is physicochemical. Conditions: 0.5 h.
The target in data set [7] is T1, DPP4 (dipeptidyl peptidase 4). The data set can be described thus: Half life of compound assessed as recombinant human DPP4-mediated cleavage by RP-HPLC analysis. The class given is ADME.
The target is the same in data set [8]. Kind of data set: Drug degradation assessed as recombinant human DPP4-mediated cleavage by measuring compound remaining after 12 hrs by RP-HPLC analysis. The class given is ADME. Conditions: read-out: Stability.
Data set [9] has the same target. Kind of data set: Drug degradation assessed as recombinant human DPP4-mediated cleavage by measuring compound remaining after 72 hrs by RP-HPLC analysis. The class given is ADME. The following applies: read-out: Stability.
Data set [10] shares this target. Kind of data set: Drug degradation assessed as recombinant human DPP4-mediated cleavage by measuring compound remaining after 48 hrs by RP-HPLC analysis. The class given is ADME. Conditions: read-out: Stability.
For data set [11] the target is unchanged. Kind of data set: Drug degradation assessed as recombinant human DPP4-mediated cleavage by measuring compound remaining after 96 hrs by RP-HPLC analysis. The following applies: read-out: Stability. The class given is ADME.
Data set [12] shares this target. The data set can be described thus: Drug degradation assessed as recombinant human DPP4-mediated cleavage by measuring compound remaining after 24 hrs by RP-HPLC analysis. The following applies: read-out: Stability. The class given is ADME.

The text below walks through data of ChEMBL document CHEMBL3769397, “A new GLP-1 analogue with prolonged glucose-lowering activity in vivo via backbone-based modification at the N-terminus” (Bioorg Med Chem, 2016).

Glucagon-like peptide 1 receptor, sequence (P43220 whole entry): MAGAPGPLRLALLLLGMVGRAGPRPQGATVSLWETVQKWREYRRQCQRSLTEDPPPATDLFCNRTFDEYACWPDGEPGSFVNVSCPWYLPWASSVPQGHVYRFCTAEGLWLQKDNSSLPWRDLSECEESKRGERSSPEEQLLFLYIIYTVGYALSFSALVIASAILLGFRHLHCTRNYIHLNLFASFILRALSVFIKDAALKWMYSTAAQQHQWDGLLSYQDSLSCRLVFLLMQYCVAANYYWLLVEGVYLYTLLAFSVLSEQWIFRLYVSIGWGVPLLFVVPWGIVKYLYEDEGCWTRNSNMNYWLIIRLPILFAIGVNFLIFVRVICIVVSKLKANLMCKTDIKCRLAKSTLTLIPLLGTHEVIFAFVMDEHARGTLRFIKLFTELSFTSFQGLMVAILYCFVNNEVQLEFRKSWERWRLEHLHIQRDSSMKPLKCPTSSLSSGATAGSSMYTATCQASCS

One may read the EC50 as the concentration giving half of the maximal effect. A higher EC50 goes with weaker potency. For orientation: half-life means the time needed for the level to fall by half in the phase considered. With `CC[C@H](C)[C@H](NC(=O)[C@H](Cc1ccccc1)NC(=O)[C@H](CCC(=O)O)NC(=O)[C@H](CCCCN)NC(=O)[C@H](C)NC(=O)[C@H](C)NC(=O)[C@H](CCC(N)=O)NC(=O)CNC(=O)[C@H](CCC(=O)O)NC(=O)[C@H](CC(C)C)NC(=O)[C@H](Cc1ccc(O)cc1)NC(=O)[C@H](CO)NC(=O)[C@H](CO)NC(=O)[C@@H](NC(=O)[C@H](CC(=O)O)NC(=O)[C@H](CO)NC(=O)[C@@H](NC(=O)[C@H](Cc1ccccc1)NC(=O)[C@@H](NC(=O)CCNC(=O)[C@H](CCC(=O)O)NC(=O)[C@H](C)NC(=O)[C@@H](N)Cc1cnc[nH]1)[C@@H](C)O)[C@@H](C)O)C(C)C)C(=O)N[C@@H](C)C(=O)N[C@@H](Cc1c[nH]c2ccccc12)C(=O)N[C@@H](CC(C)C)C(=O)N[C@H](C(=O)N[C@@H](CCCCN)C(=O)NCC(=O)N[C@@H](CCCNC(=N)N)C(N)=O)C(C)C`, the midpoint of the response in [1], the EC50, lay at 63.6 pM. For the same compound, the remaining at 8 h in data set [2] was found to be 14.9%. Besides, in data set [3], the remaining at 2 h was 57.5%. Moreover, in [4], the remaining at 4 h amounted to 34.8%. Also, in data set [5], the remaining at 1 h was determined as 74.8%. This compound registered a Retention_time in data set [6] of 14.566 min. Besides, in data set [7], the half-life is 2.39 h. Further, the remaining at 12 h in data set [8] was found to be 7.5%.
In [1] (hek293), `CC[C@H](C)[C@H](NC(=O)[C@H](Cc1ccccc1)NC(=O)[C@H](CCC(=O)O)NC(=O)[C@H](CCCCN)NC(=O)[C@H](C)NC(=O)[C@H](C)NC(=O)[C@H](CCC(N)=O)NC(=O)CNC(=O)[C@H](CCC(=O)O)NC(=O)[C@H](CC(C)C)NC(=O)[C@H](Cc1ccc(O)cc1)NC(=O)[C@H](CO)NC(=O)[C@H](CO)NC(=O)[C@@H](NC(=O)[C@H](CC(=O)O)NC(=O)[C@H](CO)NC(=O)[C@@H](NC(=O)[C@H](Cc1ccccc1)NC(=O)[C@@H](NC(=O)CNC(=O)[C@H](CCC(=O)O)NC(=O)C1(NC(=O)[C@@H](N)Cc2cnc[nH]2)CC1)[C@@H](C)O)[C@@H](C)O)C(C)C)C(=O)N[C@@H](C)C(=O)N[C@@H](Cc1c[nH]c2ccccc12)C(=O)N[C@@H](CC(C)C)C(=O)N[C@H](C(=O)N[C@@H](CCCCN)C(=O)NCC(=O)N[C@@H](CCCNC(=N)N)C(N)=O)C(C)C` had an EC50 of 28.4 pM. For the same compound, the remaining at 72 h in data set [9] is 100%. Moreover, the remaining at 48 h in [10] is 100%. Besides, the Retention_time in data set [6] turned out to be 13.842 min. Further, the remaining at 96 h in data set [11] came out at 100%. Further, in [7], the half-life was more than 96 h. For the same compound, in data set [12], the remaining at 24 h is 100%. The remaining at 12 h in data set [8] was 100%.
As to `CC[C@H](C)[C@H](NC(=O)[C@H](Cc1ccccc1)NC(=O)[C@H](CCC(=O)O)NC(=O)[C@H](CCCCN)NC(=O)[C@H](C)NC(=O)[C@H](C)NC(=O)[C@H](CCC(N)=O)NC(=O)CNC(=O)[C@H](CCC(=O)O)NC(=O)[C@H](CC(C)C)NC(=O)[C@H](Cc1ccc(O)cc1)NC(=O)[C@H](CO)NC(=O)[C@H](CO)NC(=O)[C@@H](NC(=O)[C@H](CC(=O)O)NC(=O)[C@H](CO)NC(=O)[C@@H](NC(=O)[C@H](Cc1ccccc1)NC(=O)[C@@H](NC(=O)CNC(=O)[C@H](CCC(=O)O)NC(=O)C[C@H](C)NC(=O)[C@@H](N)Cc1cnc[nH]1)[C@@H](C)O)[C@@H](C)O)C(C)C)C(=O)N[C@@H](C)C(=O)N[C@@H](Cc1c[nH]c2ccccc12)C(=O)N[C@@H](CC(C)C)C(=O)N[C@H](C(=O)N[C@@H](CCCCN)C(=O)NCC(=O)N[C@@H](CCCNC(=N)N)C(=O)O)C(C)C`, the remaining at 8 h in [2] stood at 100%. In addition, in data set [3], the remaining at 2 h came to 100%. In addition, the remaining at 72 h in [9] came to 100%. For the same compound, in data set [10], the remaining at 48 h came to 100%. Besides, the remaining at 4 h in data set [4] was found to be 100%. Also, the remaining at 1 h in [5] is 100%. Moreover, the Retention_time in data set [6] amounted to 14.536 min. In addition, the remaining at 96 h in [11] worked out at 100%. The half-life in data set [7] is more than 96 h. The remaining at 24 h in data set [12] came out at 100%. Besides, the remaining at 12 h in data set [8] stood at 100%.
